Our source for the Activity values is ChEMBL document CHEMBL1138490, “Gamma-aminobutyric acid amides of nortriptyline and fluoxetine display improved pain suppressing activity” (2009).

Active and inactive are the calls of the source. The rule behind the calls is not given here.

For assay [1], the system named is Mus musculus. Kind of assay: Antinociceptive activity against formalin-induced neurogenic pain in BALB/c mouse assessed paw licking, biting or shaking at to 30 mg/kg, po equimolar dose of fluoxetine administered 2 hrs before formalin challenge measured relative to control. In kind it is functional, organism-based. On the set-up: dose 30 mg/kg.
In assay [2] the test system is Mus musculus. Kind of assay: Anxiolytic activity in BALB/c mouse assessed as velocity at equimolar oral dose relative to 10 mg/kg fluoxetine after 90 mins by open-field test (RVb= 7.07+/-0.51 cm/s). It is filed as functional.
Assay [3] has as its system Mus musculus. Put plainly: Anxiolytic activity in BALB/c mouse assessed as velocity at equimolar oral dose relative to 5 mg/kg fluoxetine after 90 mins by open-field test (RVb= 7.07+/-0.51 cm/s). It is filed as functional.
Assay [4] concerns Mus musculus. Put plainly: Anxiolytic activity in BALB/c mouse assessed as velocity at equimolar oral dose relative to 20 mg/kg fluoxetine after 90 mins by open-field test (RVb= 7.07+/-0.51 cm/s). In kind it is functional.
Assay [5] concerns Mus musculus. Put plainly: Antinociceptive activity against formalin-induced neurogenic pain in BALB/c mouse assessed paw licking, biting or shaking at 30 mg/kg, po administered 2 hrs before formalin challenge measured relative to control. In kind it is functional, organism-based. On the set-up: dose 30 mg/kg.
In assay [6] the test system is Mus musculus. Kind of assay: Anxiolytic activity in BALB/c mouse assessed as distance moved at equimolar oral dose relative to 10 mg/kg fluoxetine after 90 mins by open-field test (RVb= 8485+/-610 cm). It is filed as functional.
For assay [7], the system named is Mus musculus. Kind of assay: Anxiolytic activity in BALB/c mouse assessed as distance moved at equimolar oral dose relative to 20 mg/kg fluoxetine after 90 mins by open-field test (RVb= 8485+/-610 cm). It is filed as functional.
The test system of assay [8] is Mus musculus. Put plainly: Antinociceptive activity in BALB/c mouse assessed as increase in paw withdrawal latency time at 10 mg/kg, po daily measured after 3 to 5 hrs on day 1 on day 1 to 11. It is filed as functional, organism-based. The arrangement: dose 10 mg/kg.
Assay [9] relates to Mus musculus. Put plainly: Antinociceptive activity in BALB/c mouse assessed as […] at 20 to 40 mg/kg, po equimolar dose of nortriptyline after 240 mins by hot plate method. In kind it is functional, organism-based. On the technique in general: Thermal pain tests record how soon the animal reacts.
The test system of assay [10] is Mus musculus. Kind of assay: Antinociceptive activity in BALB/c mouse assessed as increase in paw withdrawal latency time at 10 mg/kg, po equimolar dose of fluoxetine daily measured after 3 to 5 hrs on day 1 to 11. It is filed as functional, organism-based. The arrangement: dose 10 mg/kg.
Assay [11] has as its system Mus musculus. Put plainly: Anxiolytic activity in BALB/c mouse assessed as immobility at equimolar oral dose relative to 5 mg/kg fluoxetine after 90 mins by open-field test (RVb= 458.4+/-41 s). It is filed as functional.
The subject of assay [12] is Mus musculus. Kind of assay: Antinociceptive activity in BALB/c mouse assessed as paw withdrawal latency at 0.4 mg/kg, po equimolar dose of nortriptyline after 2 to 4 hrs by hot plate method. On the set-up: dose 0.4 mg/kg. In kind it is functional, organism-based.
In assay [13] the test system is Mus musculus. Put plainly: Antinociceptive activity in BALB/c mouse assessed as […] at 10 mg/kg, po equimolar dose of nortriptyline after 240 mins by hot plate method. It is filed as functional, organism-based. On the set-up: dose 10 mg/kg.
Assay [14] relates to Mus musculus. Put plainly: Antinociceptive activity against formalin-induced neurogenic pain in BALB/c mouse assessed paw licking, biting or shaking during at 10 mg/kg, po equimolar oral dose fluoxetine administered 2 hrs before formalin challenge measured relative to control. In kind it is functional, organism-based. The arrangement: dose 10 mg/kg.
Assay [15] relates to Mus musculus. Put plainly: Anxiolytic activity in BALB/c mouse assessed as distance moved at equimolar oral dose relative to 5 mg/kg fluoxetine after 90 mins by open-field test (RVb= 8485+/-610 cm). In kind it is functional.
The subject of assay [16] is Mus musculus. Put plainly: Antinociceptive activity in BALB/c mouse assessed as paw withdrawal latency at 0.4 mg/kg, po after 2 to 4 hrs by hot plate method. It is filed as functional, organism-based. The arrangement: dose 0.4 mg/kg.
Assay [17] concerns Mus musculus. Kind of assay: Anxiolytic activity in BALB/c mouse assessed as immobility at equimolar oral dose relative to 20 mg/kg fluoxetine after 90 mins by open-field test (RVb= 458.4+/-41 s). It is filed as functional.
Assay [18] relates to Mus musculus. Put plainly: Antinociceptive activity against formalin-induced neurogenic pain in BALB/c mouse assessed paw licking, biting or shaking during at 10 mg/kg, po administered 2 hrs before formalin challenge measured relative to control. It is filed as functional, organism-based. On the set-up: dose 10 mg/kg.
Assay [19] deals with Mus musculus. Kind of assay: Anxiolytic activity in BALB/c mouse assessed as immobility at equimolar oral dose relative to 10 mg/kg fluoxetine after 90 mins by open-field test (RVb= 458.4+/-41 s). In kind it is functional.

For the compound `CN(CCC(Oc1ccc(C(F)(F)F)cc1)c1ccccc1)C(=O)CCCN.Cl` (centres undefined), the outcome in the assay with Mus musculus [1], in the assay with Mus musculus [5], in the assay with Mus musculus [8], in the assay on Mus musculus [9], in the assay on Mus musculus [10] and with Mus musculus [12] was Active. Also, the result with Mus musculus [13], in the assay with Mus musculus [14], in the assay on Mus musculus [16] and in the assay on Mus musculus [18] was Active. Further, the Activity was 6.67 cm/s with Mus musculus [2]; 6.47 cm/s in the assay on Mus musculus [3]; 5.39 cm/s in the assay with Mus musculus [4]; 8003 cm with Mus musculus [6]; 6462 cm with Mus musculus [7]; 501.5 s in the assay on Mus musculus [11]. For the same compound, the results for the Activity in the assay on Mus musculus [15], in the assay with Mus musculus [17] and with Mus musculus [19] were 7767 cm, 639.9 s and 536.3 s, respectively.
